Key:
BMNCs [1] = assay: Semisolid colonogenic assay (BFU-E colonies); assay type: cell-based, mouse
Procedure: To investigate the effects of QGR on erythroid lineage development in mouse HSCs and EPCs, the colonogenic assay was performed according to the manufacturer's instruction in triplicate by plating 2×10^5 cells/plate using methylcellulose stock solution in IMDM (R&D Systems) with cocktail (rIL-3 100 units/ml plus rSCF 5 units/ml plus rEpo 3 units/ml) or/and QGR (0, 100 or 200 μM/ml) in 35 mm-diameter cell culture plates. These plates were put in 100 mm-diameter plates with 3 ml of autoclaved distilled water and incubated at 37° C. in 5% CO2 humidity air. 14 days later, BFU-E colonies were counted under an Axiovert 40 CFL inverted microscope (Carl Zeiss, Oberkochen, Germany).

BMNCs [2] = assay: Flow cytometric analysis for cells positive for TER-119; assay type: cell-based, mouse; details: 7 days, 100 or 200 μM/ml, dose-dependently, vs negative control
Procedure: To confirm the differentiation of mouse HSCs or EPCs into erythroid cells by QGR treatment, flow cytometric analysis for mouse anti-TER-119 was performed. BMNCs were cultured with either rEpo (3 units/ml) or QGR (100 or 200 μM/ml) in 6-well plates. Cells were harvested at day 7, washed with PBS, re-suspended at concentration of 1×10^5 cells/ml in 100 μl of PBS containing 0.02% sodium azide and 2% FBS, incubated with 10 μl of mouse anti-CD16/CD32 Ab (eBioScience, San Diego, Calif., USA) as Fc receptor blocker for 3 min at room temperature and incubated with PE-conjugated anti-TER-119 Ab for 20 min at 4° C. Flow cytometric analysis was performed using FACS Calibur (Becton Dickinson, Oxnard, Calif., USA) and the percentage of positively stained cells was determined.

Structure (SMILES): CC1OC(Oc2c(-c3ccc(O)c(O)c3)oc3cc(O)cc(O)c3c2=O)C(OC(=O)c2cc(O)c(O)c(O)c2)C(O)C1O (stereo not drawn) [QGR, quercetin 3-O-β-(2″-galloyl)-rhamnopyranoside]
- formation and growth of BFU-E colonies compared with the positive control (BMNCs [1]; cocktail (rIL-3, rSCF and rEpo) plus 200 μM QGR, p<0.01): 1.43 fold
- number of BFU-E colonies compared with negative control (BMNCs [1]; day 14, 100 or 200 μM/ml for QGR, dose-dependent): significantly enhanced
- number of BFU-E colony compared with positive control (BMNCs [1]; day 14, QGR alone vs rIL-3+rSCF+rEpo): smaller than that of positive control
- ratio of TER-119+ cells (flow cytometric analysis) (BMNCs [2]): significantly increased
